Earlier results on 52 compounds are cited in article PMC9788431, “Combination of Docking-Based and Pharmacophore-Based Virtual Screening Identifies Novel Agonists That Target the Urotensin Receptor” (Molecules, 2022).

Values joined by “and” are separate entries in the source; they are usually repeats but may differ in a detail not shown here. Identical values can stand only once.

The target in this series is T1, UT receptor (Homo sapiens, UniProt Q9UKP6).
T1 construct: SNAP-tag; expressed in transfected cells; host or cells: 293A8 (HEK293A stably transfected with the UT receptor); inferred, the calcium-assay paragraph names no cells
T1 sequence (Q9UKP6 1-389): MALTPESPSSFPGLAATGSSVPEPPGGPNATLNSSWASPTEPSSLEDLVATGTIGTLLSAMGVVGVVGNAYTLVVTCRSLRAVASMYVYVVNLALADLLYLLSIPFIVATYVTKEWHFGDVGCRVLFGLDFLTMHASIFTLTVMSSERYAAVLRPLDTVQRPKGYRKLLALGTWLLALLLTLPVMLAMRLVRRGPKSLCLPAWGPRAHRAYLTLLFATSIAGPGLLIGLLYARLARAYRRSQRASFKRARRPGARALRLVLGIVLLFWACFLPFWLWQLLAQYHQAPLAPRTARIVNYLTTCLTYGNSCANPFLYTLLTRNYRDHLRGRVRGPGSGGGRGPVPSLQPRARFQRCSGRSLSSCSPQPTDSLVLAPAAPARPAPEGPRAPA
Set-up: method as in ChEMBL database and others. Conditions: antagonist; Table S1 benchmarking ligands; ref ChEMBL database and others; cited from earlier work.

For `CCN1CCN(c2cccc3c2CN([C@H](CCCNC(=O)c2cccs2)c2ccc(OC)c(OC)c2)C3=O)CC1` [CHEMBL567075], the IC50 (as a rule, the concentration needed to halve the response being measured) was 140 nM.

Turning to `CCN1CCN(c2cccc3c2CN([C@H](CCCNS(=O)(=O)c2cccs2)c2ccc(OC)c(OC)c2)C3=O)CC1` [CHEMBL567713], the IC50 was 8 nM.

As to `COc1ccc([C@@H](CCCNS(=O)(=O)c2cccs2)N2C(=O)c3cccc(N4CCN(C(C)C)CC4)c3C2=O)cc1OC` [CHEMBL567736], the IC50 was 150 nM.

For the compound `COc1ccc([C@@H](CCCNS(=O)(=O)c2c(C)n[nH]c2C)N2C(=O)c3cccc(N4CCN([C@H](C)c5ccccc5)CC4)c3C2=O)cc1OC` [CHEMBL567759], the IC50 was 47 nM.

As for `COc1ccc([C@@H](CCCNS(=O)(=O)c2cccs2)N2C(=O)c3cccc(N4CCN(C)CC4)c3C2=O)cc1OC` [CHEMBL567949], the IC50 is 220 nM.

On to `CCN1CCN(c2cccc3c2CN([C@H](CCCNCc2cccs2)c2ccc(OC)c(OC)c2)C3=O)CC1` [CHEMBL568123], for which the IC50 was 59 nM.

Take `COc1ccc([C@@H](CCCNS(=O)(=O)c2cccs2)N2C(=O)c3cccc(N4CCN([C@H](C)c5ccccc5)CC4)c3C2=O)cc1OC` [CHEMBL568165]: the IC50 was 240 nM.

`COc1ccc([C@@H](CCCNS(=O)(=O)c2cccs2)N2Cc3c(cccc3N3CCN(C(C)C)CC3)C2=O)cc1OC` [CHEMBL568637]: the IC50 was 53 nM.

Consider `COc1ccc([C@@H](CCCNC(=O)c2cnoc2C)N2C(=O)c3cccc(N4CCN([C@H](C)c5ccccc5)CC4)c3C2=O)cc1OC` [CHEMBL568764], for which the IC50 was 760 nM.

As for `CCN1CCN(c2cccc3c2CN([C@H](CCCN(C)S(=O)(=O)c2cccs2)c2ccc(OC)c(OC)c2)C3=O)CC1` [CHEMBL571535], the IC50 is 88 nM.

On to `COc1ccc([C@@H](CCCN(C)S(=O)(=O)c2cccs2)N2Cc3c(cccc3N3CCN(C4CCC4)CC3)C2=O)cc1OC` [CHEMBL571537], for which the IC50 is 510 nM.

As to `COc1ccc([C@@H](CCCN(C)S(=O)(=O)c2cccs2)N2Cc3c(cccc3N3CCN(C(C)C)CC3)C2=O)cc1OC` [CHEMBL578203], the IC50 is 500 nM.

On to `CCN1CCN(c2cccc3c2CN([C@H](CCCNS(=O)(=O)c2c[nH]cn2)c2ccc(OC)c(OC)c2)C3=O)CC1` [CHEMBL578207], for which the IC50 is 51 nM.

Regarding `COc1cc2c(cc1OC)C(CCc1cc(F)ccc1F)N(CCNC(=O)Nc1cc(C)nc3ccccc13)CC2` (stereo not shown) [CHEMBL1163360], the IC50 was 67 nM.

On to `Cc1cc(NC(=O)NCCN2CCC(O)(Cc3ccccc3)CC2)c2ccccc2n1` [CHEMBL1164032], for which the IC50 was 3.6 nM.

As to `COc1cc(Br)c(S(=O)(=O)Nc2ccc(Cl)c(O[C@@H]3CCN(C)C3)c2)cc1OC` [CHEMBL2348501], the IC50 was 43 nM.

Take `COc1cc(Br)c([S+]([O-])Cc2ccc(Cl)c(O[C@@H]3CCN(C)C3)c2)cc1OC` (stereo partly shown) [CHEMBL2348504]: the IC50 is 245 nM.

Take `COc1cc(Br)c(SCc2ccc(Cl)c(O[C@@H]3CCN(C)C3)c2)cc1OC` [CHEMBL2348505]: the IC50 was 440 nM.

Turning to `COc1cc(Br)c(CNc2ccc(C(F)(F)F)c(O[C@H]3CCN(C)C3)c2)cc1OC` [CHEMBL2348511], the IC50 was 191 nM.

With `CN1CC[C@H](Oc2cc(NCc3ccccc3Br)ccc2C(F)(F)F)C1` [CHEMBL2348514], the IC50 is 821 nM.

Take `CN(C)CCOc1cc(NCc2ccccc2C(F)(F)F)ccc1Cl` [CHEMBL2348515]: the IC50 was 520 nM and 765 nM.

For the compound `COc1cccc(CNc2ccc(C(F)(F)F)c(O[C@H]3CCN(C)C3)c2)c1` [CHEMBL2348517], the 50% inhibitory concentration (IC50) is 691 nM.

As for `CN1CC[C@H](Oc2cc(NCc3c(Br)ccc4c3OCO4)ccc2C(F)(F)F)C1` [CHEMBL2348518], the IC50 is 620 nM.

As to `COc1cc(Br)c(S(=O)(=O)Nc2ccc(C(F)(F)F)c(OCCN(C)C)c2)cc1OC` [CHEMBL2348523], the IC50 was 100 nM.

Take `COc1cc(Br)c(S(=O)(=O)Nc2ccc(C(F)(F)F)c(OCCN3CCN(C)CC3)c2)cc1OC` [CHEMBL2348527]: the IC50 was 840 nM.

For the compound `CC(C)[C@H](NC(=O)[C@@H]1CSSC[C@H](NC(=O)[C@H](C)N)C(=O)N[C@@H](Cc2ccccc2)C(=O)N[C@@H]2Cc3c([nH]c4ccccc34)CN(C2=O)[C@@H](CCCCN)C(=O)N[C@@H](Cc2ccc(O)cc2)C(=O)N1)C(=O)O` [CHEMBL3104461], the IC50 is 60 nM.

Regarding `CC(C)[C@H](NC(=O)[C@@H]1CSSC[C@H](NC(=O)[C@H](C)N)C(=O)N[C@@H](Cc2ccccc2)C(=O)N[C@@H](c2ccccc2)C(=O)N[C@@H](CCCCN)C(=O)N[C@@H](Cc2ccc(O)cc2)C(=O)N1)C(=O)O` [CHEMBL3104462], the IC50 was 29.5 nM.

Turning to `CC(C)[C@H](NC(=O)[C@@H]1CSSC[C@H](NC(=O)[C@H](C)N)C(=O)N[C@@H](Cc2ccccc2)C(=O)N[C@H](c2ccccc2)C(=O)N[C@@H](CCCCN)C(=O)N[C@@H](Cc2ccc(O)cc2)C(=O)N1)C(=O)O` [CHEMBL3104463], the IC50 was 27.5 nM.

As for `CC(C)[C@H](NC(=O)[C@@H]1CSSC[C@H](NC(=O)[C@H](C)N)C(=O)N[C@@H](Cc2ccccc2)C(=O)N2CCc3ccccc3[C@H]2C(=O)N[C@@H](CCCCN)C(=O)N[C@@H](Cc2ccc(O)cc2)C(=O)N1)C(=O)O` [CHEMBL3104464], the IC50 is 10 nM.

Consider `CC(C)[C@H](NC(=O)[C@@H]1CSSC[C@H](NC(=O)[C@H](C)N)C(=O)N[C@@H](Cc2ccccc2)C(=O)N2CCc3ccccc3[C@@H]2C(=O)N[C@@H](CCCCN)C(=O)N[C@@H](Cc2ccc(O)cc2)C(=O)N1)C(=O)O` [CHEMBL3104465], for which the IC50 is 21 nM.

`CC(C)[C@H](NC(=O)[C@@H]1CSSC[C@H](NC(=O)[C@H](C)N)C(=O)N[C@@H](Cc2ccccc2)C(=O)N2Cc3ccccc3C[C@@H]2C(=O)N[C@@H](CCCCN)C(=O)N[C@@H](Cc2ccc(O)cc2)C(=O)N1)C(=O)O` [CHEMBL3104467]: the IC50 is 88 nM.

With `CC(C)[C@H](NC(=O)[C@@H]1CSSC[C@H](NC(=O)[C@H](C)N)C(=O)N[C@@H](Cc2ccccc2)C(=O)N[C@@H](Cc2c[nH]c3ccccc23)C(=O)N[C@@H](CCCCN)C(=O)N[C@@H](Cc2ccc(O)cc2)C(=O)N1)C(=O)O` [CHEMBL3104471], the IC50 is 12 nM.

Turning to `CC(C)[C@H](NC(=O)[C@@H]1CSSC[C@H](NC(=O)[C@H](C)N)C(=O)N[C@@H](Cc2ccccc2)C(=O)N[C@@H](Cc2cccc3ccccc23)C(=O)N[C@@H](CCCCN)C(=O)N[C@@H](Cc2ccc(O)cc2)C(=O)N1)C(=O)O` [CHEMBL3104637], the IC50 was 17 nM.

On to `CC(C)[C@H](NC(=O)[C@@H]1CSSC[C@H](NC(=O)[C@H](C)N)C(=O)N[C@@H](Cc2ccccc2)C(=O)N[C@H](Cc2cccc3ccccc23)C(=O)N[C@@H](CCCCN)C(=O)N[C@@H](Cc2ccc(O)cc2)C(=O)N1)C(=O)O` [CHEMBL3104638], for which the 50% inhibitory concentration (IC50) is 46 nM.

With `CC(C)[C@H](NC(=O)[C@@H]1CSSC[C@H](NC(=O)[C@H](C)N)C(=O)N[C@@H](Cc2ccccc2)C(=O)N[C@@H](Cc2ccc(I)cc2)C(=O)N[C@@H](CCCCN)C(=O)N[C@@H](Cc2ccc(O)cc2)C(=O)N1)C(=O)O` [CHEMBL3104639], the IC50 was 58 nM.

For the compound `CC(C)[C@H](NC(=O)[C@@H]1CSSC[C@H](NC(=O)[C@H](C)N)C(=O)N[C@@H](Cc2ccccc2)C(=O)N[C@@H](C(c2ccccc2)c2ccccc2)C(=O)N[C@@H](CCCCN)C(=O)N[C@@H](Cc2ccc(O)cc2)C(=O)N1)C(=O)O` [CHEMBL3104643], the IC50 is 277 nM.

In the case of `Cn1ccc2c(NC(=O)NCCN3CCC(O)(Cc4ccccc4)CC3)ccnc21` [CHEMBL3358667], the IC50 is 160 nM.

In the case of `O=C(NCCN1CCC(O)(Cc2ccccc2)CC1)Nc1ccnc2ccoc12` [CHEMBL3358671], the IC50 was 450 nM.

With `O=C(NCCN1CCC(O)(Cc2ccccc2)CC1)Nc1ccnc2sccc12` [CHEMBL3358673], the IC50 is 930 nM.

With `Cc1cc2nccc(NC(=O)NCCN3CCC(O)(Cc4ccccc4)CC3)c2s1` [CHEMBL3358674], the IC50 was 78 nM.

With `Cc1cc(NC(=O)NCCN2CCC(O)(Cc3ccccc3)CC2)c2sccc2n1` [CHEMBL3358679], the IC50 is 26 nM.

Regarding `CCc1cc(NC(=O)NCCN2CCC(O)(Cc3ccccc3)CC2)c2sccc2n1` [CHEMBL3358680], the IC50 is 60 nM.

`Cc1ccccc1CC1(O)CCN(CCNC(=O)Nc2ccnc3ccsc23)CC1` [CHEMBL3358682]: the IC50 is 20 nM.

For the compound `Cc1cccc(CC2(O)CCN(CCNC(=O)Nc3ccnc4ccsc34)CC2)c1` [CHEMBL3358683], the 50% inhibitory concentration (IC50) is 140 nM.

Regarding `Cc1ccc(CC2(O)CCN(CCNC(=O)Nc3ccnc4ccsc34)CC2)cc1` [CHEMBL3358684], the IC50 was 190 nM.

As to `O=C(NCCN1CCC(O)(Cc2ccccc2Br)CC1)Nc1ccnc2ccsc12` [CHEMBL3358685], the IC50 is 20 nM.

On to `O=C(NCCN1CCC(O)(Cc2cccc(Br)c2)CC1)Nc1ccnc2ccsc12` [CHEMBL3358686], for which the IC50 was 42 nM.

For `O=C(NC1CCN(Cc2ccc(OC3CCNCC3)c(Br)c2)CC1)c1cc2cc(Cl)ccc2s1` [CHEMBL3896625], the IC50 is 51 nM.

In the case of `Cc1ccc(-c2ccc3cc(C(=O)NC4CCN(Cc5ccc(OC6CCNCC6)c(Br)c5)CC4)sc3c2)cc1` [CHEMBL3898238], the IC50 is 140 nM.

`O=C(NC1CCN(Cc2ccc(OC3CCNCC3)c(Br)c2)CC1)c1cc2cc(C(F)(F)F)ccc2s1` [CHEMBL3906682]: the IC50 is 100 nM.

`O=C(NC1CCN(Cc2ccc(OC3CCNCC3)c(Br)c2)CC1)c1cc2ccc(-c3ccc(Cl)cc3)cc2s1` [CHEMBL3907266]: the IC50 is 140 nM.

For `COc1ccccc1-c1ccc2cc(C(=O)NC3CCN(Cc4ccc(OC5CCNCC5)c(Br)c4)CC3)sc2c1` [CHEMBL3915656], the IC50 was 560 nM.
